Data on 4 compounds can be found in patent publication US10800791B2, “Triazole ACC inhibitors and uses thereof” (Gilead Apollo, LLC, priority 2015, dated 2020).

≈ marks a conversion by molar mass, not a printed value. Like-named read-outs stand apart in the source and are kept apart here.

Experiment [1] has as its system Fusarium moniliforme (Fm). As to the kind of experiment: Growth inhibition assay of fungal pathogens, Fm. The note with it: Fusarium verticillioides, 48 h, Fusarium moniliforme; growth inhibition at 48 hours vs 2% DMSO control; read-out: Concentration at 90% Inhibition Fm. In kind it is cell-based. The method, then:
(§1) Compounds of the present invention were evaluated in a growth inhibition assay to determine the ability to control the growth of fungal pathogens, such as Botrtyis cinerea (Bc), Collectotrichum graminicola (Cg), Diplodia maydis (Dm), Fusarium moniliforme (Fm), Fusarium virguliforme (Fv), Phytophthora capsici (Pc), Rhizoctonia solani (Rs), and Septoria tritici (St).
(§2) Compounds to be tested were dissolved in DMSO at 2.5 mg/ml to produce compound stock solutions (“stocks”). Stocks were diluted with DMSO by a five-fold dilution in a 96-well stock plate, and two sets of final concentrations of 50, 10, and 2 ppm or 2, 0.4, and 0.08 ppm were obtained in vitro. A set of positive controls was also prepared, with various concentrations of Soraphen (2, 0.4, and 0.08 ppm), Metalaxyl (1.1, 0.22, and 0.04 ppm), and Metconazole (2, 0.4, and 0.08 ppm or 0.2, 0.04, and 0.008 ppm) after the five-fold dilutions. Negative controls on each plate included 2% DMSO, water, and a blank (media+2% DMSO).
(§3) Fungal spores were isolated from previously sub-cultured plates of Botrtyis cinerea (Bc), Collectotrichum graminicola (Cg), Diplodia maydis (Dm), Fusarium moniliforme (Fm), Fusarium virguliforme (Fv), Phytophthora capsici (Pc), and Septoria tritici (St). The isolated spores were diluted to individual concentrations with a 17% V8 liquid media. For Rhizoctonia solani (Rs) and Pythium irregulare, 1.5 mm mycelial plugs were used in place of spores and/4 Potato Dextrose Broth (PDB) was used for dilution. The spore concentrations and plug sizes were based on growth curves generated at 48 hours for each pathogen.
(§4) In a second 96-well plate, the spores or mycelial plugs, media, diluted compound solutions, and controls were combined. Once the compound was added, a true final concentration of compound in each well was measured by an OD600 reading, which adjusted for any compound precipitation that might have occurred in the well. Plate readings were repeated at both 24 and 48 hours. The blank negative control was used as a background subtraction. Additional visual ratings were performed at both 24 and 48 hours for checking on precipitation and confirming efficacy. Visual and OD600 ratings of the compounds at 48 hours were compared to the 2% DMSO negative control, and the percent of pathogen growth inhibition was determined based on those values.

Experiment [2] relates to Diplodia maydis (Dm). As to the kind of experiment: Growth inhibition assay of fungal pathogens, Dm. In kind it is cell-based. The note with it: Stenocarpella maydis, 48 h, Diplodia maydis; growth inhibition at 48 hours vs 2% DMSO control; read-out: Concentration at 90% Inhibition Dm. On the procedure:
as §1, §2, §3, §4

The test system of experiment [3] is C. parapsilosis. The experiment can be described thus: Antifungal Activity Assay (broth microtiter MIC), C. parapsilosis. The note with it: Lodderomyces parapsilosis, ATCC22019, 48 h, ATCC 22019, 3 replicates, MIC recorded at 48 h, read-out: MIC, C. parapsilosis ATCC 22019. It counts as cell-based, Candida parapsilosis. Put shortly:
(§5)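 MICs were scored by eye at 48 h relative to the growth control. Plates followed CLSI M27-A3, with Candida suspensions in RPMI 1640+MOPS giving a final 2.5×10^3 CFU/mL; the colonies came from Sabouraud agar grown overnight at 35 °C.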

For experiment [4], the system named is C. albicans. The experiment can be described thus: Antifungal Activity Assay (broth microtiter MIC), C. albicans. It counts as cell-based, Candida albicans. The note with it: Candida albicans, ATCC90028, 48 h, ATCC 90028, 3 replicates, MIC recorded at 48 h, read-out: MIC, C. albicans ATCC 90028. Summed up: as §5
Experiment [5] concerns C. krusei. The experiment can be described thus: Antifungal Activity Assay (broth microtiter MIC), C. krusei. In kind it is cell-based, Candida krusei. The note with it: Pichia kudriavzevii, ATCC6258, 48 h, ATCC 6258, 3 replicates, MIC recorded at 48 h, read-out: MIC, C. krusei ATCC 6258. Put shortly: as §5
For experiment [6], the system named is Botrtyis cinerea (Bc). As to the kind of experiment: Growth inhibition assay of fungal pathogens, Bc. It counts as cell-based. The note with it: 48 h, Botrtyis cinerea; growth inhibition at 48 hours vs 2% DMSO control; read-out: Concentration at 90% Inhibition Bc. The method, then:
as §1, §2, §3, §4

In experiment [7] the test system is Rhizoctonia solani (Rs). The experiment can be described thus: Growth inhibition assay of fungal pathogens, Rs. In kind it is cell-based. The note with it: 48 h. On the procedure: as §1, §2, §3, §4
In experiment [8] the test system is Collectotrichum graminicola (Cg). The experiment can be described thus: Growth inhibition assay of fungal pathogens, Cg. In kind it is cell-based. The note with it: 48 h, Collectotrichum graminicola; growth inhibition at 48 hours vs 2% DMSO control; read-out: Concentration at 90% Inhibition Cg. On the procedure: as §1, §2, §3, §4
The subject of experiment [9] is Septoria tritici (St). As to the kind of experiment: Growth inhibition assay of fungal pathogens, St. It counts as cell-based. The note with it: Zymoseptoria tritici, 48 h, Septoria tritici; growth inhibition at 48 hours vs 2% DMSO control; read-out: Concentration at 90% Inhibition St. The method, then:
as §1, §2, §3, §4

Experiment [10] concerns Phytophthora capsici (Pc). As to the kind of experiment: Growth inhibition assay of fungal pathogens, Pc. It counts as cell-based. The note with it: 48 h, growth inhibition at 48 hours vs 2% DMSO control, read-out: Concentration at 90% Inhibition Pc. The method, then: as §1, §2, §3, §4
In experiment [11] the test system is Fusarium virguliforme (Fv). The experiment can be described thus: Growth inhibition assay of fungal pathogens, Fv. In kind it is cell-based. The note with it: 48 h, growth inhibition at 48 hours vs 2% DMSO control, read-out: Concentration at 90% Inhibition Fv. The method, then: as §1, §2, §3, §4
The target of experiment [12] is human (hACC2) (Homo sapiens, UniProt O00763). As to the kind of experiment: In vitro ACC inhibition assay (ADP-Glo), hACC2. In kind it is biochemical. The note with it: 5 nM ACC2, 20 μM ATP, 20 μM acetyl-CoA. The method, then: The detailed procedure is as follows. […] 10 μL ADP glo reagent was added. […] 20 μL kinase detection reagent was added.
Background: In ADP-Glo the light output rises with the ADP produced.

Setting [13] is: mycelial plugs, growth inhibition at 48 hours vs 2% DMSO control, read-out: Concentration at 90% Inhibition Rs.
Setting [14] is: mycelial plugs, growth inhibition vs 2% DMSO control at 48 hours, read-out: Concentration at 90% Inhibition Rs.

human (hACC2), sequence (O00763 whole entry): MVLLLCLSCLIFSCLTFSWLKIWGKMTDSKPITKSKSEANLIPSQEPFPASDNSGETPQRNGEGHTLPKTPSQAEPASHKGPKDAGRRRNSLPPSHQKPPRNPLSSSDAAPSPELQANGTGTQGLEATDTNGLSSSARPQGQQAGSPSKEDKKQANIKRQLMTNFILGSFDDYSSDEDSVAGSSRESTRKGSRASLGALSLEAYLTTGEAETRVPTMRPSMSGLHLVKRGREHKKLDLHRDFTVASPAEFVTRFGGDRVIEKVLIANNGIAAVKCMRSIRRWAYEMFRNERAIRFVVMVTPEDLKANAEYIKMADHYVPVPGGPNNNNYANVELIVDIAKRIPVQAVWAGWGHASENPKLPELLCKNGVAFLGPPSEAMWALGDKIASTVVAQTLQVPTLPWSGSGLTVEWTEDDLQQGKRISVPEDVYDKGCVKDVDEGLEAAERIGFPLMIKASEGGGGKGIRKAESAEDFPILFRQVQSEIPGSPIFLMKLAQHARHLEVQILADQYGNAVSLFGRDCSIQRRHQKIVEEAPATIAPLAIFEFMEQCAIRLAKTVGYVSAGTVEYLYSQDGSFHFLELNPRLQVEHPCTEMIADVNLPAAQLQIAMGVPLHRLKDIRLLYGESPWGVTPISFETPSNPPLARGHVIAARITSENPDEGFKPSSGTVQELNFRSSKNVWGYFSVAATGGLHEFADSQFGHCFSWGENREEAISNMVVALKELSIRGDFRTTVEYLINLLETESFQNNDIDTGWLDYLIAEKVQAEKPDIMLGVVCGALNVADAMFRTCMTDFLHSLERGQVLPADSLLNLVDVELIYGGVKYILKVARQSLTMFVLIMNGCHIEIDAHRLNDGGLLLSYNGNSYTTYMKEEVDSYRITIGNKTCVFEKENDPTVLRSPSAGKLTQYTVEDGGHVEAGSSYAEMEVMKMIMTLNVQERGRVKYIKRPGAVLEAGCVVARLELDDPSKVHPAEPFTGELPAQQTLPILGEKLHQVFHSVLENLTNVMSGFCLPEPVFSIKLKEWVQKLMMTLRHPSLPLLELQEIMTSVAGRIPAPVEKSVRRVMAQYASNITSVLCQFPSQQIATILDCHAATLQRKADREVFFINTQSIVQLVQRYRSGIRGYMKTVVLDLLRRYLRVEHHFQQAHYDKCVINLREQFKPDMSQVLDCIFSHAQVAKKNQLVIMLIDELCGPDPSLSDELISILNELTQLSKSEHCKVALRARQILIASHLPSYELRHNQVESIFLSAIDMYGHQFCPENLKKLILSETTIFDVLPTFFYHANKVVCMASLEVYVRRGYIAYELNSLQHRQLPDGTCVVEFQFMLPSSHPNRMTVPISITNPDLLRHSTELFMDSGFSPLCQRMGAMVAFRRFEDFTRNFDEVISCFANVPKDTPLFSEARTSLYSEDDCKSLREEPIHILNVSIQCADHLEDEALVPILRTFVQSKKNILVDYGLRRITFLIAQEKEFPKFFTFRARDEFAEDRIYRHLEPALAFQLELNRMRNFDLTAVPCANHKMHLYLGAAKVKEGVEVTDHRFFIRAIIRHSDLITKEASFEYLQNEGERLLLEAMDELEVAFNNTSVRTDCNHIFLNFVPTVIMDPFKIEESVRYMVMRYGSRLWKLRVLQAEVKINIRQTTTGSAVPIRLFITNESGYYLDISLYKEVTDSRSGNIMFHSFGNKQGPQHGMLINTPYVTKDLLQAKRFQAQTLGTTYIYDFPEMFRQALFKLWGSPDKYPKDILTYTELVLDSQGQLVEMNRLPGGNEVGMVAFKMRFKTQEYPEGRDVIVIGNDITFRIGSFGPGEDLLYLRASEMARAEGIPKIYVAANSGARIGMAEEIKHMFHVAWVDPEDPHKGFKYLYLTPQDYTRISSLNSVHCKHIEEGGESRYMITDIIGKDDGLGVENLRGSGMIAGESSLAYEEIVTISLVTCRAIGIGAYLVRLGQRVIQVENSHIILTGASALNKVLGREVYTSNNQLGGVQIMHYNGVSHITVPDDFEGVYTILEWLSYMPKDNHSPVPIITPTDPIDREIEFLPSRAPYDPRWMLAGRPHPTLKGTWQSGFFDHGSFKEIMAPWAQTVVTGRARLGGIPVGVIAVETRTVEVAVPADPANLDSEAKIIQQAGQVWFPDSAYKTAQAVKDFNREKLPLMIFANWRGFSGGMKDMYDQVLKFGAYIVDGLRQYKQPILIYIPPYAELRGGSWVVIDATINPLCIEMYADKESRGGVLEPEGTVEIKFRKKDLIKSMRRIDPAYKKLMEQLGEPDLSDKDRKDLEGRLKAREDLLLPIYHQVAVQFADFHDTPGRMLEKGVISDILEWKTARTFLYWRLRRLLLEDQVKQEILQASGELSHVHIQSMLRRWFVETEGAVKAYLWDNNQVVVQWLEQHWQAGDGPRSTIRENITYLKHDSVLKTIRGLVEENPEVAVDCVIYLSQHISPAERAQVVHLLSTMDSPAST

For orientation: MIC means the smallest concentration in the dilution series that meets the test's criterion for growth inhibition. Usually IC50 stands for the midpoint of a concentration-inhibition curve. Read a high IC50 as lower potency. For `COc1ccc(F)cc1[C@H](Cn1c(=O)n(C(C)(C)C(=O)O)c(=O)c2c(C)c(-n3nccn3)sc21)OC1CCC(=O)CC1` [Compound I-30, (R)-2-(1-(2-(5-fluoro-2-methoxyphenyl)-2-((4-oxocyclo-hexyl)oxy)ethyl)-5-methyl-2,4-dioxo-6-(2H-1,2,3-triazol-2-yl)-1,4-dihydrothieno[2,3-d]pyrimidin-3(2H)-yl)-2-methylpropanoic acid], the IC90 is 2 µg/mL (≈ 3.34 µM) in experiment [1]; over 50 µg/mL in experiment [2]; 10 µg/mL (≈ 16.7 µM) in [6]; 10 µg/mL (≈ 16.7 µM) in [7] (setting [13]); over 50 µg/mL in [8]; over 50 µg/mL in experiment [9]. For the same compound, the IC90 in [10] and in experiment [11] was over 50 µg/mL in each case. Moreover, the minimum inhibitory concentration (MIC) in experiment [3] (Table 3a) was 2.1 to 4 µg/mL (≈ 3.5 to 6.67 µM); in experiment [3] (Table 3b (additional results)), 2.01 to 4 µg/mL (≈ 3.35 to 6.67 µM); in experiment [4] (Table 3a), 2.1 to 4 µg/mL (≈ 3.5 to 6.67 µM); in experiment [4] (Table 3b (additional results)) it was 1.01 to 2 µg/mL (≈ 1.68 to 3.34 µM); in [5] (Table 3a), 2.1 to 4 µg/mL (≈ 3.5 to 6.67 µM); in experiment [5] (Table 3b (additional results)) it was 1.01 to 2 µg/mL (≈ 1.68 to 3.34 µM). The IC50 fell in the range of 1 to 5 nM in experiment [12] (Table 2a) and 1 to 5 nM in experiment [12] (Table 2b, additional results).

`COc1ccc(F)cc1[C@H](Cn1c(=O)n(C(C)C(=O)N2CCCC2)c(=O)c2c(C)c(-n3nccn3)sc21)OC(C)C` (stereo partly drawn) [Compound I-40, 1-((R)-2-(5-fluoro-2-methoxyphenyl)-2-isopropoxyethyl)-5-methyl-3-(1-oxo-1-(pyrrolidin-1-yl)propan-2-yl)-6-(2H-1,2,3-triazol-2-yl)thieno[2,3-d]pyrimidine-2,4(1H,3H)-dione]: the values for the IC90 in experiment [7] (setting [13]) and in experiment [7] (setting [14]) were 0.4 µg/mL (≈ 0.684 µM) and 0.08 µg/mL (≈ 0.137 µM), respectively. Moreover, the concentration for half-maximal inhibition (IC50) in experiment [12] (Table 2a) was 5 to 10 nM; in experiment [12] (Table 2b, additional results), 5 to 10 nM.

As to `COc1ccc(F)cc1[C@H](Cn1c(=O)n(C(C)(C)C(=O)NC(C)C)c(=O)c2c(C)c(-n3nccn3)sc21)OCC(C)(C)O` [Compound I-57, (R)-2-(1-(2-(5-fluoro-2-methoxyphenyl)-2-(2-hydroxy-2-methylpropoxy)ethyl)-5-methyl-2,4-dioxo-6-(2H-1,2,3-triazol-2-yl)-1,4-dihydro-thieno[2,3-d]pyrimidin-3(2H)-yl)-N-isopropyl-2-methylpropanamide], the IC90 came to 0.4 µg/mL (≈ 0.649 µM) in [7] (read-out: Concentration at 90% Inhibition Rs, Rhizoctonia solani, mycelial plugs, growth inhibition at 48 hours vs 2% DMSO control) and 0.4 µg/mL (≈ 0.649 µM) in experiment [7] (read-out: Concentration at 90% Inhibition Rs, Rhizoctonia solani, mycelial plugs, growth inhibition vs 2% DMSO control at 48 hours). The half-maximal inhibitory concentration (IC50) lay in the range of 10 to 40 nM in experiment [12] (Table 2a) and 10 to 40 nM in [12] (Table 2b, additional results).

Regarding `COc1ccc(F)cc1[C@H](Cn1c(=O)n(C(C)(C)C(=O)N2CCCC2)c(=O)c2c(C)c(-n3nccn3)sc21)OCC(C)(C)O` [Compound I-58, (R)-1-(2-(5-fluoro-2-methoxyphenyl)-2-(2-hydroxy-2-methylpropoxy)ethyl)-5-methyl-3-(2-methyl-1-oxo-1-(pyrrolidin-1-yl)propan-2-yl)-6-(2H-1,2,3-triazol-2-yl)thieno[2,3-d]pyrimidine-2,4(1H,3H)-dione], the IC90 in experiment [7] (setting [13]) and in [7] (setting [14]) was 0.4 µg/mL (≈ 0.636 µM) throughout. Moreover, the half-maximal inhibitory concentration (IC50) lay in the range of 10 to 40 nM in experiment [12] (Table 2a) and 10 to 40 nM in experiment [12] (Table 2b, additional results).
